We go through 81 compounds from the METLIN SMRT retention time set (Domingo-Almenara et al. 2019).

This series in a line: gradient 5% acetonitrile 3 min, to 50% in 2 min, to 85% in 15 min, held 3 min, 100 µL/min. The note with it: column: Zorbax Extend-C18 2.1 x 50 mm; eluents: water / acetonitrile, 0.1% formic acid. Put shortly: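 Data were gathered over 3 months by HPLC coupled to a quadrupole time-of-flight mass spectrometer, operated in positive and negative ionization mode. Mixtures of ~100 pure standards ran on a Zorbax Extend-C18 column (2.1 × 50 mm, 1.8 μm) at 100 μL/min, with water and acetonitrile each containing 0.1% formic acid and dead and dwell volumes of 40 μL and 900 μL. Retention time was read from adduct peaks picked by computer and checked manually.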
Turning to `CCCOc1cn(-c2ccc(F)cc2)nc1C(=O)N1CCC(C(=O)OCC)CC1`, the RP-LC retention time came to 930 s. `CCc1nc(OCC(=O)NCc2ccc(SC)cc2)c2ccccc2n1` had an RP-LC retention time of 814 s.

`CCOc1cccc(-c2noc(Cc3nnc(-c4ccc(F)cc4)o3)n2)c1` yielded an RP-LC retention time of 1080 s. On to `CCOC(=O)c1noc2ncnc(N3CCCc4ccccc43)c12`, for which the RP-LC retention time amounted to 988 s. The compound `O=C(C1CCN(c2cnc3nccnc3c2)CC1)N1CCN(c2ccc(Cl)cc2)CC1` registered an RP-LC retention time of 810 s. In turn, `CCN1C(=O)c2cccc3c(NC(=O)c4cccs4)ccc1c23` gave an RP-LC retention time of 731 s.

In turn, `Cn1c(C(=O)N2CCCc3ccccc32)cc2c(=O)oc3ccccc3c21` yielded an RP-LC retention time of 988 s.

In turn, `Cc1ccc(NC(=O)c2nc(C(C)C)oc2C)cc1F` registered an RP-LC retention time of 1140 s.

`COc1ccccc1N1CCN(c2cc(SCC(=O)NCc3ccccc3Cl)ncn2)CC1` gave an RP-LC retention time of 908 s.

`Cc1cc(C)cc(NC(=O)N2CCC(n3cnc4ccc(Cl)cc4c3=O)CC2)c1`: the RP-LC retention time was 817 s. Compound `Cc1ccc2c(C(=O)N3CCN(C4CCCCC4)CC3)cc(NC(=O)C3CCC3)cc2n1` came in with an RP-LC retention time of 556 s. For the compound `CCC(=O)N1CCc2cc(N3CC(C(=O)NC(C)c4ccccc4)CC3=O)ccc21` (stereo unspecified), the RP-LC retention time came out at 750 s. As to `COCc1cc2nn(CC(=O)NC3CCCCC3)c(=O)n2c(-c2ccccc2)n1`, the RP-LC retention time was 785 s. The compound `Cc1cccc(N(C(=O)Nc2ccccc2C)C2=NCCC2)c1` returned an RP-LC retention time of 1100 s. Next, `CCS(=O)(=O)N1CCCN(C(=O)NC(C)C)CC1`: 613 s; `Cc1nn(-c2ccccc2)c(C)c1S(=O)(=O)N1CCC(C(=O)NC2CCCc3ccccc32)CC1` (stereo unspecified): 1010 s; `CCn1cnc(S(=O)(=O)N2CCCC(C(=O)NCc3ccccc3)C2)c1` (stereo unspecified): 768 s.

Turning to `N#Cc1ccc(C(=O)N2CCC(CCOCC3CC3)CC2)cc1`, the RP-LC retention time is 862 s. Next, `COc1ccc(CCNC(=O)CCc2nnc3c4cc(-c5ccc(C)c(C)c5)nn4ccn23)cc1OC`: 802 s; `CC(NC(=O)Nc1cccc(Br)c1)C(=O)N1CCc2ccccc21` (stereo unspecified): 950 s; `CCCN(CCC)C(=O)Cn1c(CN(C)C(C)=O)nc2ccccc21`: 630 s. Then `Cc1cccc(-c2ncccc2CNS(=O)(=O)c2cccc(F)c2)c1`, with 724 s; and `O=C(Nc1ccc(-c2ccc(=O)[nH]n2)cc1)c1ccc(-n2cccn2)nn1`, with 643 s.

Compound `Cc1nc(-c2noc(-c3ccccc3)n2)cn1CC(=O)N1CCc2ccccc21` yielded an RP-LC retention time of 860 s. `Cc1cccc(S(=O)(=O)N(C)CC2CCOCC2)c1` came in with an RP-LC retention time of 863 s.

On to `O=C1C=C(NCCc2ccccc2)c2ccccc2C1=O`, for which the RP-LC retention time amounted to 736 s. Take `Cc1cccc(Sc2nccnc2N2CCC(C(=O)NCc3ccccc3)CC2)c1`: the RP-LC retention time came out at 1060 s. Next, `CCc1noc(NC(C)=O)c1-c1ccc(OC)c(S(=O)(=O)NC(C)C)c1`: 695 s; `COc1ccc(-c2nc3cnccn3c2Nc2ccc(C(N)=O)cc2)cc1OC`: 593 s.

`COCCOCC(=O)NCC1CCCCC(=O)N1` (stereo unspecified) showed an RP-LC retention time of 576 s. Regarding `Cc1cc(N2CCCC2)n2nc(-c3ccc(C(C)(C)C)cc3)nc2n1`, the RP-LC retention time stood at 968 s. Next, `Cc1cccc(NC(=O)N2CCc3[nH]cnc3C2c2ccncc2)c1` (stereo unspecified): 557 s. As to `O=C(COc1ccccc1)NCCSc1c[nH]c2ccccc12`, the RP-LC retention time turned out to be 831 s.

`COc1ccc(N2CCN(c3nc(C(=O)NC4CC4)cs3)CC2)cc1` returned an RP-LC retention time of 832 s. `CCc1ccc(-n2cc(C(=O)OCc3cc(=O)n4ccccc4n3)c3ccccc3c2=O)cc1` yielded an RP-LC retention time of 991 s. In turn, `O=C(Nc1cnc(N2CCCCCC2)nc1)c1cc(F)cc(F)c1` displayed an RP-LC retention time of 1020 s. Next, `Cn1nc(-c2nc(-c3cccc(F)c3)no2)c2c1CCN(C(=O)NC1CCCC1)C2`: 957 s; `Cc1ccc(Nc2c(-c3ccc(Cl)cc3)nc3ccc(Cl)cn23)cc1`: 1060 s. Turning to `C=C(C)COc1ccc2oc(C)c(C(=O)O)c2c1`, the RP-LC retention time was determined as 879 s. With `CC1=NS(=O)(=O)N(C)C=C1C(=O)OCc1noc(-c2ccccc2C)n1`, the RP-LC retention time was found to be 987 s. Regarding `COc1ccc(-c2c(C(=O)NCCN3CCN(C)CC3)nc3ccccn23)cc1`, the RP-LC retention time was found to be 574 s. As for `Cn1ccc2cc(S(=O)(=O)N3CCC(C(=O)N4CCN(Cc5ccccc5)CC4)CC3)ccc21`, the RP-LC retention time was 671 s.

`Cc1ccc(-c2cc3c4nnc(CCC(=O)N5CCN(C6CCCCC6)CC5)n4ccn3n2)cc1C`: the RP-LC retention time was 682 s. Turning to `Fc1ccc(C2Cn3nnc(-c4nc(-c5cccc(F)c5)no4)c3CO2)cc1` (stereo unspecified), the RP-LC retention time was 1150 s. Then `CC(C)S(=O)(=O)NC[C@H](C)c1ccc(NC(=O)c2cc(F)cc(F)c2)cc1`, with 1050 s; and `CCOc1ccc(-c2nc(CSCC(=O)NCc3cccs3)c(C)o2)cc1`, with 1030 s; and `Cc1noc(CNC(=O)C2CCN(C(=O)C(C)(C)Oc3ccc(Cl)cc3)CC2)n1`, with 772 s. `COc1ccc(CCS(=O)(=O)Nc2ccc(CC(=O)NCc3cccs3)cc2)cc1` showed an RP-LC retention time of 782 s. For `Cc1cccc(-c2noc(Cn3c(=O)n(-c4ccc(Cl)cc4)c(=O)c4sccc43)n2)c1`, the RP-LC retention time was determined as 1100 s. For the compound `Cc1cccc(S(=O)(=O)N2CCc3c(C(=O)NCCCN4CCCCC4)cccc32)c1`, the RP-LC retention time is 680 s. The compound `Cc1ccc(CNC(=O)N2CCCC2c2nc(-c3ccccc3)no2)cc1` (stereo unspecified) gave an RP-LC retention time of 994 s.

For `CCc1ccc(C(=O)N2CCC3(C2)C(=O)N(C)c2ccc(OC)cc23)cc1` (stereo unspecified), the RP-LC retention time came to 840 s. Then `O=C(NCc1ccc(F)cc1F)c1ccc(Cn2c(C(F)(F)F)nc3cccnc32)cc1`, with 925 s. `COc1ccc(-c2nc3cc(C)ccn3c2NC(=O)COc2ccc(Cl)cc2Cl)cc1` came in with an RP-LC retention time of 780 s. As to `CCCNS(=O)(=O)c1ccc(Cl)c(-c2nnc(-c3ccccc3)o2)c1`, the RP-LC retention time stood at 1010 s. Then `COc1ccc(CC(=O)Nc2c(-c3ccc(F)cc3)nc3ccccn23)cc1`, with 645 s. Then `CCn1c(=O)c(SCC(=O)N2CCN(c3ccccn3)CC2)nc2ccccc21`, with 612 s; and `Cc1nn(C(C)C(=O)NC(C)C)c(=O)c2nn(-c3ccccc3)c(C)c12` (stereo unspecified), with 739 s; and `Cc1cc(Oc2ncnc3c2cnn3-c2ccc(Cl)cc2)ccc1[N+](=O)[O-]`, with 1270 s.

Compound `CN(CC1CCOC1)C(=O)Nc1cccc(Cl)c1F` (stereo unspecified) came in with an RP-LC retention time of 733 s. With `COc1ccc(-c2cn3c(CC(=O)N4CCOCC4)csc3n2)cc1OC`, the RP-LC retention time was 607 s. Take `CCc1nc(OCC(=O)NCc2ccc3c(c2)OCO3)c2ccccc2n1`: the RP-LC retention time worked out at 902 s. Next, `Clc1ccc(Cc2nnc3ccc(Cl)nn23)cc1`: 823 s.

`CN(C)CCNC(=O)Cn1c2ccccc2c2cnn(C)c(=O)c21` came in with an RP-LC retention time of 576 s. Compound `O=C(Cc1nnc(-c2ccc3ncccc3c2)o1)NCCC1=CCCCC1` displayed an RP-LC retention time of 759 s. The compound `Cc1ccc(CNC(=O)CCNc2c(-c3ccccc3C)nc3cnccn23)o1` returned an RP-LC retention time of 631 s. Then `Cc1nc(CCNC(=O)C2CCC2)no1`, with 608 s; and `CC1CCCCN1CCCNC(=O)Cn1ccc2cc(S(=O)(=O)N3CCCCCC3)ccc21` (stereo unspecified), with 682 s. Next, `O=C(CCCn1nnc2ccccc2c1=O)Nc1ccccc1Cl`: 770 s; `CNC(=O)CN1c2ccccc2NC2=C(C(=O)CC(C)(C)C2)C1c1ccc(OC)cc1` (stereo unspecified): 729 s; `CC(C)n1cc(S(=O)(=O)Nc2cccc(F)c2)c2cccnc21`: 877 s. In turn, `CCN(Cc1ccc(Cl)cc1)Cc1cc(=O)n2ccccc2n1` had an RP-LC retention time of 615 s. In turn, `Cc1ccc2c(=O)c(C(=O)N3CCCC3)cn(CC(=O)Nc3ccccc3Cl)c2n1` returned an RP-LC retention time of 704 s. Then `CN1CCN(CC/C=C2/c3ccccc3Sc3ccc(S(=O)(=O)N(C)C)cc32)CC1`, with 752 s; and `CSc1ncc(Cl)c(C(=O)NCc2ccco2)n1`, with 753 s; and `COc1cc(NC(=O)CSc2nccc(N3CCN(c4cccc(OC)c4)CC3)n2)cc(OC)c1`, with 667 s.

`COc1ccc(-c2noc(C3CC(=O)N(c4cc(C)cc(C)c4)C3)n2)cc1` (stereo unspecified) registered an RP-LC retention time of 1040 s. Then `Cc1ccc(N2CCC(NC(=O)c3cccs3)C2=O)cc1C` (stereo unspecified), with 827 s.

`O=C(c1cccc(F)c1)N1CCC2(CC1)N=C(c1ccccc1)NO2` registered an RP-LC retention time of 739 s.

Compound `COCCOCc1nc(C2CCN(S(=O)(=O)c3ccc(OC)cc3)C2)no1` (stereo unspecified) registered an RP-LC retention time of 791 s. For `CCc1ccc(C(C)NS(=O)(=O)c2c(C)c(-c3nnc(C4CCC4)o3)n(C)c2C)cc1` (stereo unspecified), the RP-LC retention time came to 1060 s.
